Entries after “also recorded” stand apart in the source; their conditions may differ. Read-outs that look alike come from different tables or passages of the source.
Key:
[1] = test system: experimental allergic encephalomyelitis (EAE), PLP immunization; assay: Survival of SWXJ-14 mice with EAE; format: in vivo
Description: FIG. 14. Comparison of the survival of SWXJ-14 mice with EAE treated with PTIO and uric acid. SWXJ-mice were immunized with PLP in CFA as described for FIG. 12 and treated once daily with a 2 mg dose of uric acid or PTIO i.p. from day 5 to day 13, followed by two daily doses on day 14 and three daily doses thereafterward.
To more directly compare the action of PTIO and uric acid in EAE we have administered each of these agents in parallel to PLP-immunized SWXJ-14 mice. In these experiments the mice were immunized with PLP and treated with increasing doses of PTIO or uric acid beginning at day 5 after immunization.

nitric oxide (NO) [2] = assay: NO levels in brain and spinal cord of SWXJ-14 mice with EAE (spin trapping with DETC, EPR); format: in vivo
Description: FIG. 3. Effect of daily administration of c-PTIO on NO levels in the brain and spinal cord of SWXJ-14 mice immunized with PLP. SWXJ-14 mice were immunized as described below for FIG. 1. Beginning 4 days post immunization, mice (n=7) were treated with 2 mg c-PTIO given i.p. until 16 days post-immunization. Mean severity scores were graded as detailed in Table 1. Mean nitric oxide levels in brain and spinal cord were semi-quantitated using spin-trapping with DETC and EPR spectroscopy at 17 days post-immunization as described elsewhere. (For brain or spinal cord results are represented as follows: Left hand column: untreated. Center column: treated with c-PTIO. Right hand column: no EAE control)
FIG. 13. Effect of the administration of uric acid on brain and spinal cord NO levels and the clinical severity of EAE in SWXJ-14 mice. SWXJ-14 mice were immunized with PLP in CFA as described for FIG. 12 and treated once daily with the indicated doses of uric acid i.p. At day 16 post-immunization the animals were euthanized and NO levels in brain and spinal cord assessed as detailed for FIG. 3. Results are for individual mice. Each central white column represents the spinal cord NO level. The black column to the left of a white column represents the clinical severity score. The cross hatched column to the right of a white column represents the brain NO level.
(§1) In FIG. 1, EAE was elicited in 11 week old female Lewis rats by the adoptive transfer of 20×10^6 cells of the MBP-specific line 5HGBP.G5 activated by stimulation with MBP and syngeneic APC 48 hours previously and NO levels measured 5 days after transfer. In SWXJ-14 mice, EAE was triggered by two subcutaneous immunizations (d.0 and 7) with 100 μg PLP in CFA over two injection sites, and NO levels measured 18 days later. Results expressed represent the mean values obtained from a minimum of 4 animals. Peak severity of the symptoms of EAE ranged from 2-3 for the rats and 4-5 for the mice. NO was semi-quantitated using spin trapping with DETC and EPR-spectroscopy as described previously.
(§2) Clinical symptoms manifest as an ascending paralysis approximately 13 days after immunization and the disease rapidly progresses to its fatal endpoint by day 16-20. […] NO levels in the brains and spinal cords of animals treated with a single daily dose of PTIO were semi-quantitated by spin trapping and EPR spectroscopy on day 17 after immunization, one day after treatment was terminated. […] We expect that the removal of NO by PTIO should not necessarily interfere with the induction of the response responsible for NO production and that as the supplied PTIO is used up NO levels should rapidly return to control values.
(§3) In contrast to SJL mice, SWX mice immunized with PLP undergo a progressive,often fatal form of EAE. Clinical symptoms manifest as an ascending paralysis approximately 13 days after immunization and the disease rapidly progresses to its fatal endpoint by days 16-20. […] We conclude that the amount of carboxy-PTIO we administered, especially considering the short in vivo half life of the compound, was only sufficient to delay the onset of the EAE in the SWXJ-14 mouse.
At 16 days after immunization, several mice from each group were euthanized so that NO levels in their brains and spinal cords could be measured using spin-trapping and EPR spectroscopy.

[3] = test system: experimental allergic encephalomyelitis (EAE), PLP immunization; assay: Clinical severity of PLP-induced EAE in SWXJ-14 mice; format: in vivo
Description: FIG. 2. Effect of daily administration of c-PTIO (carboxy-PTIO) on EAE in SWXJ-14 mice. EAE was induced in SWJX-14 mice by two subcutaneous immunizations (d.0 and d.7) of […] PLP in CFA over two injection sites. Mice (N=3) were treated beginning on day 5 post-immunization with 2 mg/mouse c-PTIO […] i.p. and was continued until day 16 post-immunization (day 0 being the day of first immunization). Mean severity scores were graded as detailed in Table 1.
FIG. 4. Effect of D609 on the development of EAE in SWXJ-14 mice. SWXJ-mice were immunized with PLP as detailed for FIG. 2. Mice (n=2) were treated i.p. with 1 mg/mouse D609 from day 5 through day 14 post-immunization. Mean severity scores were graded as detailed in Table 1.
FIG. 12. Effect of the administration of various doses of uric acid on EAE in SWXJ-14 mice. EAE was induced in SWXJ-14 mice by two subcutaneous immunizations (d.0 and 7) of […] PLP in CFA over two injection sites. Mice (n=5) were treated once daily, beginning on day 5 post-immunization, with the indicated doses of uric acid. Mean severity scores were graded as detailed in Table 1.
(§4) Induction of EAE in rats by adoptive transfer of MBP-specific T cells or in SJL or SWXJ-14 mice by immunization with MBP or PLP 139-151, a peptide derived from […] [8], results in variable disease. We have scored the clinical systems of EAE as tabulated below.
(§5) Severity scores and symptoms of Experimental Allergic
(§6) 1 piloerection, tail weakness
(§7) 3 hind limb weakness/paralysis
(§8) 4 hind and forelimb paralysis
as §1, §2, §3
NO is not universally considered to be a molecule with significant in vivo toxicity and peroxynitrite is thought to be the more toxic molecule produced by activated inflammatory cells resulting from the interaction of NO and superoxide. We would henceforth expect that removal of NO would reduce peroxynitrite formation. To determine whether NO or peroxynitrite is more likely to be ultimately responsible for clinical disease in EAE we have performed a series of experiments using uric acid, a known scavenger of peroxynitrite, to treat EAE induced in SWXJ-14 mice by immunization with PLP.

[4] = test system: experimental allergic encephalomyelitis (EAE), immunization-elicited; assay: Clinical severity of immunization-elicited EAE in SJL mice; format: in vivo
Excerpt: as §4, §5, §6, §7, §8
(§9) SJL mice are immunized subcutaneously with pMBP in adjuvant to induce EAE, from which they often recover. Commencing ten days post-immunization, groups of mice (n=6) were treated once daily with 2 mg of either PTIO or carboxy-PTIO intraperitoneally and observed for clinical signs of EAE which were graded as detailed in Table 1. […] At 18 days […], NO determinations were performed in several mice from each group.

nitric oxide (NO) [5] = assay: NO levels in spinal cord and brain of SJL mice with EAE; format: in vivo
Description: as §9

[6] = mice, i.v. or i.p., estimated; cited from earlier work
[7] = test system: experimental allergic encephalomyelitis (EAE), MBP-specific T cell transfer; assay: Clinical severity of adoptive transfer EAE in Lewis rats; format: in vivo; details: EAE mediated by T cell transfer
Excerpt: as §4
______________________________________
as §5, §6, §7, §8, §1
Rats were injected i.v. with 20×10^6 MBP-specific CD4 T cells activated in vitro. Two days later the animals were treated with a single dose of either PTIO (20 mg) or a mixture of PTIO (20 mg), indomethacin (1 mg), and allopurinol (13 mg). Treatment was continued on a daily basis until day 4 and animals were sacrificed for NO measurement the following day.

[8] = rats, i.v. or i.p., estimated; cited from earlier work
Water solubility = format: physicochemical
NF-κB [9] = assay: Activation of transcription factor NF-κB in A549 cells; format: cell-based; details: 50 μg/ml, human A549 cells
NF-κB [10] = assay: Activation of transcription factor NF-κB in RAW 264.7 cells; format: cell-based; details: 50 μg/ml, mouse RAW 264.7 cells
[11] = test system: phosphatidylcholine-specific phospholipase C (PC-PLC); details: via blocking activation of PC-PLC [16]; cited from earlier work
iNOS gene [12] = assay: Transcriptional activation of the iNOS gene in RAW 264.7 cells (gel-shift assays); format: cell-based; details: 50 μg/ml, mouse RAW 264.7 cells
A549 cells = assay: Nitrite production by activated A549 cells (Griess reaction); format: cell-based, human; details: 50 μg/ml; IL-1β, γIFN, TNFα activated
Description: FIG. 5. […] The accumulation of nitrite over time was measured in the presence and absence of D609. Human A549 cells were activated with IL-1β (100 units/ml), γIFN (500 units/ml) and TNFα (10 ng/ml), and the accumulation of nitrite over time was measured using the Griess reaction. The concentration of nitrite was calculated using a standard solution of nitrite in culture media.
We have employed the human lung carcinoma cell line A549 (ATCC) and, as for comparison, the mouse monocyte-macrophage cell line RAW 264.7 (ATCC) as producers of NO. Treatment of RAW 264.7 cells with 1 μg/ml of LPS or A549 cells with IL-1β (100 units/ml), γIFN (500 units/ml), and TNFα (10 ng/ml) stimulates the production of NO which can be detected by the accumulation of nitrite in culture supernatants. Using these methods of stimulation, RAW cells produced up to 100 μM of nitrite during 24 hours of culture while the A549 cells generally produced roughly 10 fold less nitrite in our experiments.

iNOS gene [13] = assay: Transcriptional activation of the iNOS gene in A549 cells (gel-shift assays); format: cell-based; details: 50 μg/ml, human A549 cells
[14] = day 17 after immunization, one day after treatment ended
[15] = single daily dose of 100 mg/kg, day 17

Q: For Oc1nc(O)c2[nH]c(O)nc2n1 [uric acid, 2,6,8-trihydroxypurine], which “Improvement in clinical signs of surviving mice (FIG. 14)” value ([1]; at termination of the experiment) is on record?
A: a number were actually beginning to show some improvement in the clinical signs of their disease

Q: What about the “Mice still alive (FIG. 14)” value ([1]; several days after day 18, 2 mg i.p. once daily day 5-13, two doses day 14, then three daily) of the same compound?
A: 80%

Q: And the “NO levels in spinal cord and brain (FIG. 13)” value (nitric oxide (NO) [2]; day 16, mice that failed to show symptoms of EAE)?
A: significant levels of NO were detected in spinal cord and brain

Q: What about the “Mice remaining healthy (FIG. 12)” value ([3]; high dose of uric acid) of the same compound?
A: The majority of the mice treated with a high dose of uric acid remained healthy throughout the length of the experiment

Q: And the “Onset and severity of clinical symptoms of EAE (FIG. 12)” value ([3]; uric acid once daily from day 5 post-immunization)?
A: delays the onset and severity of the clinical symptoms of EAE in these animals in a dose dependent fashion

Q: What does the source list for CC1(C)N([O])C(c2ccc(C(=O)O)cc2)=[N+]([O-])C1(C)C [carboxy-PTIO, 2-(4-carboxyphenyl)-4,4,5,5-tetramethylimidazoline-1-oxyl-3-oxide]?
A: Onset and severity of EAE (FIG. 7) ([4]; 2 mg once daily i.p. from day 10 post-immunization, n=6): delayed onset of disease and somewhat lessened severity by comparison with untreated animals; Clinical symptoms of EAE ([4]; SJL mice, i.p. administration): forestall the appearance of clinical symptoms of EAE; Clinical severity ([4]; SJL mouse - immunization EAE, severity score 1-5, Table 2): 0.7; Brain NO increase (FIG. 8) (nitric oxide (NO) [5]; 2 mg once daily i.p., day 18): also inhibited; NO levels in spinal cord (FIG. 8) (nitric oxide (NO) [5]; 2 mg once daily i.p., day 18): lower in the spinal cords; Levels of NO in spinal cord (nitric oxide (NO) [5]; SJL mice, i.p. administration): reduce levels of NO detected in spinal cord; NO-spinal cord (nitric oxide (NO) [5]; SJL mouse - immunization EAE, Table 2): 1.4 mM; Biological half-life in blood [6]: less than five; NO levels in brain (FIG. 3) (nitric oxide (NO) [2]; [14]): low levels of NO in brain tissue compared to untreated PLP-immunized controls; NO levels in spinal cord (FIG. 3) (nitric oxide (NO) [2]; [14]): somewhat less than the spinal cord NO levels detected in the surviving untreated animals; NO induction in brain (FIG. 10) (nitric oxide (NO) [2]; [15]): prevented the induction of NO in brain; NO levels in spinal cord (FIG. 10) (nitric oxide (NO) [2]; [15]): somewhat less than the spinal cord NO levels detected in the surviving untreated animals; Treatment of EAE mediated by T cell transfer [7]: successfully treated; Overall NO production and therapeutic effect in SWXJ-14 mice ([3]; carboxy-PTIO administration): limited NO production to the spinal cord and had a clear therapeutic effect; Onset and severity of clinical symptoms of EAE (FIG. 9) ([3]; single daily dose of 100 mg/kg): delays the onset and reduces the severity of the clinical symptoms of EAE; Onset and severity of clinical symptoms of EAE (FIG. 2) ([3]; two daily doses of 100 mg/kg): delays the onset and reduces the severity of the clinical symptoms of EAE; Clinical course of EAE (FIG. 11) ([3]; two daily doses of approximately 2 mg): dramatically improves the clinical course of EAE by comparison with a single daily dose; Biological half-life in blood [8]: less than five; Water solubility (Water solubility): water soluble

Q: With S=C(S)OC1CC2CC1C1CCCC21 (stereo not shown) [D609, tricyclodecan-9-yl-xanthogenate] as the compound, how does the “Activation of transcription factor NF-κB” value (NF-κB [9]) read?
A: inhibits

Q: What about the “Activation of transcription factor NF-κB” value (NF-κB [10]) of the same compound?
A: inhibits

Q: What about the “Induction of iNOS” value [11] of the same compound?
A: inhibits the induction of iNOS by blocking the activation of phosphatidylcholine-specific phospholipase C (PC-PLC)

Q: And the “Transcriptional activation of the iNOS gene” value (iNOS gene [12])?
A: inhibits the transcriptional activation of the iNOS gene

Q: What about the “Nitrite production by A549 cells (FIG. 5)” value (A549 cells) of the same compound?
A: completely inhibited nitrite production; also recorded: inhibits nitrite production

Q: And the “Onset of clinical symptoms of EAE (FIG. 4)” value ([3]; 1 mg daily i.p., day 5-14)?
A: delays the onset of the clinical symptoms of EAE

Q: What about the “Transcriptional activation of the iNOS gene” value (iNOS gene [13]) of the same compound?
A: inhibits the transcriptional activation of the iNOS gene

Source: patent US5872124A, “Treatment of diseases of the central nervous system using uric acid as a scavenger of peroxynitrite” (Thomas Jefferson University, priority 1996, dated 1999)
